Reference: patent EP2444396A1, “PHOTOPROTECTIVE COMPOSITION” (Apoteknos Para La Piel, S.L., priority 2009, dated 2010)
“And” between values parts separate entries of the source, which are not always exact repeats. Equal values may be shown once. Marks after values point to notes of the source that are not given here.

How the values were obtained:
ERβ = molecular target: T1, ERβ (Homo sapiens, UniProt Q92731); assay: Estrogenicity reporter gene bioassay (luciferase activity) in HELN-ERβ cells; type: cell-based
T1 construct: expressed in transfected cells; host or cells: HeLa (HELN-ERβ)
Description: Briefly, the transactivation bioassay (Reporter gene assay) used are based on the use of breast and uterine cancer cell lines transfected with different native or modified hormone receptors. The resulting cell lines further contain a reporter gene regulated by estrogens through the estrogen response element, the globin promoter and the luciferase gene.
HELN-ERα and HELN-ERβ cell lines were obtained by means of transfecting the HeLa uterine cancer cell line. In a first phase, said cells were transfected with an estrogen sensitive response element and then with the estrogen receptor alpha or beta (ERα or ERβ). The selection of clones resistant to geneticin and puromycin was performed using a concentration of 1 mg/mL and 0.5 mg/mL, respectively. The maintenance medium as well as the experimental medium of these 2 cell lines is DMEM F12 without phenol red supplemented with 6% of FBS (lacking of estrogens), 1% of penicillin / streptomycin, 1 mg/mL of geneticin and 0.5 µg/mL of puromycin.
The cells were seeded at a density of 5x10^4 cells per well in white opaque 96 well plates in 150 µL of experimental medium. After 8 hours, the compounds to be assayed (p-nitrolophine and estradiol) were prepared (concentrated 4x) in the same medium and were added to each well (50 µl). The cells were incubated for 16 hours at 37°C. At the end of the incubation, the medium was removed and replaced with fresh medium containing […] luciferin [at that concentration, luciferin diffuses into cell producing a luminescent signal which is stable after 5 minutes and for at least 2 hours]. The plates were then introduced in the luminometer to measure the luminescence for 2 seconds. A YicroBeta Trilux luminometer (EGG Wallac) apparatus was used to detect luciferase activity.
The assays were preformed in quadruple for each concentration (0.01-10 µM) in at least three independent experiments. […] The values of luciferase activity obtained were analyzed using the one-way ANOVA statistic test. The differences were considered significant when P was less than […] (P < 0.05).

[1] = tested on: MCF-7 breast cancer cell line; assay: E-Screen cell proliferation test; type: cell-based, human; parameters: dose or concentration left out as unconfirmed; conditions: 144 h
[2] = tested on: MCF-7 breast cancer cell line; assay: E-Screen cell proliferation test; type: cell-based, human; conditions: MCF-7 cells, over control
Description: The E-Screen proliferation test is based on the use of MCF-7 breast cancer cell line. The MCF-7 cells [which endogenously expressed the estrogen receptor alpha (ERα)], respond to the treatment with estradiol increasing its proliferative rate, synthesizing new proteins and transcribing certain specific genes. […] The test compares the number of cells or the cell proliferation obtained after 6 days of culture. The cells grow in culture medium supplemented with human serum lacking of estrogens, in the presence and/or absence of estradiol as well as of the chemical compounds suspected of having estrogenic activity. The E-Screen test was performed following the methodology previously described by Soto et al. ["An in culture bioassay to assess the estrogenicity of xenobiotics. […] Health Perspect. 103:844-850; 1995]. […] The assay was ended after 144 hours of subculture (exponential phase) after drawing out the medium and fixing the cells for the application of sulforhodamine-B technique. Finally, the cell growth for each experimental group is related to the growth obtained for the negative control (absence of hormone) and with respect to estradiol (positive control). Once the E-Screen test is performed, the maximum cell proliferation rate induced by the compound also known as proliferative effect (PE) was established by calculating the ratio existing between the maximum proliferation rate obtained for the compound and the proliferation rate of the negative control. The proliferation data corresponding with the successive dilutions of the compound were transformed after the application of the correction factor for the dilution of each experimental point, the arithmetic mean of the data obtained being calculated. Another parameter is the relative proliferative efficiency (RPE). […] In this assay, the estrogenicity E-Screen test commonly used to identify the hormonal activity of compounds interacting specifically with the estrogen receptor alpha (ERα), has been used. The assays were performed in triplicate for each concentration (range: 300-0.003 µg/ml) in at least three independent experiments.

[3] = UV spectrum: wavelengths of maximum absorption and absorbance (Cecil 2021 UV-Visible Spectrophotometer); type: physicochemical; conditions: for UV spectrum A (a.u): absorbance at the maximum of the same line; for UV spectrum λ (nm): wavelengths of the maximum absorption
[4] = Absorption spectrum in methanol (195 - 400 nm); type: physicochemical; conditions: peak wavelength, 10 mg/ml
Experimental: In order to determine the absorption spectrum, a solution of 10 mg/ml of methanol was prepared from each of the substances. The methanol in turn was used to adjust the zero absorbance in each of the wavelengths in the range of 195 - 400 nm.

[5] = tested on: Erythema induced by UVB radiation in mouse; assay: Photoprotection: erythema induced by UVB radiation in mouse skin; type: in vivo; parameters: key to Erythema induced by UVB radiation in mouse: presence (+); absence (-); conditions: individual animals No. 1-10; 0.5% gel topical, about 2.5 kJ/m^2 UVB, 24 hours after exposure
Description: The effect of p-nitrolophine and m-nitrolophine on erythema due to exposing the mouse skin to an irradiation source at maximum in the UVB region has been studied in these assays. The results obtained have been compared with the effect of 4-methylbenzylidene camphor (P5000) a substance considered as a UVB solar filter and with the effect of butyl methoxydibenzoylmethane (P1789) an UVA type filter, both products being commonly used in antisolar cosmetics.
35 male mice weighing more than 20 grams have been used. After receiving them, the animals were acclimated for 7 days at the place where the assays were preformed, they were being placed in a cage with controlled temperature (22°C), with relative humidity between 50% and 75%, replacing fresh filtered air approximately 10 times per hour and with 12 h light/dark cycles (7.00 - 19.00 light and from 19.00 to 7.00 dark). For this period and during the experimental period, the animals were fed ad libitum with standard diet for rodents and running water as drink.
The animals were randomly distributed into 4 experimental groups according to Table 7. The products to be tested were directly used, applying them in the form of a gel on an area of the skin such that each animal form its own control.
The test was performed following the method described by Winder et al. ["A study of Pharmacological influences on ultraviolet erythema in guinea pigs". Arch. Int Pharmacodyn, 116:261-292; 1958] and by other authors [Wendy et al. "The local antinociceptive and topical antiinflamatory effects of propyl gallate in rodents". Br. J. Pharmacol, 58:573 -581; 1976; Katiyar et al. "Protective Effects of Silymarin Against Photocarcinogenesis in a Mouse Skin Model". J Natl Cancer Inst 89:556-65; 1997] with slight modifications. The day […] the assay, as much hair as possible were removed from the animals by applying a layer of commercial hair-removing cream to remove all the trace of hair and to leave the skin of the back completely bare. The rest of the hair-removing cream were removed by means of washing and rinsing with running water and the animals were the returned to their corresponding cages where they remained until the following day.
On the day of the assay, the substances to be assayed were blindly applied on the back of the previously labelled animals following a random pattern (randomized). After applying the corresponding treatments, the animals were placed and pinned to the presentation platform of the equipment. The animals were then placed 8 cm from an ultraviolet light source of 4*40w with 313 nm of fundamental emission and a range comprised approximately between 290 and 350 nm and with an anti-UVC filter. The emission spectrum of said light source is depicted in Figure 1.
The exposure was maintained until all the animals have received an approximate total dose of 2.5 kJ/m^2. The dose of irradiation applied was determined by means of a ultraviolet light detector, the response curve of which is shown in Figure 2.
Twenty four hours after ending the exposure, the back of the animals was photographed and they were returned to their cages. The evaluation of erythema was performed by means of a positive/negative criterion, the percentage of protected animals being obtained. The statistic significance of the difference was evaluated by means of the non-parametric Fisher Test.

[6] = tested on: inflammation induced by phorbol 12-myristate-13-acetate (PMA); assay: Topical anti-inflammatory activity: ear inflammation induced by PMA in mice; type: in vivo; parameters: RE / RE Average: unit not given here; conditions: 4 hours
Experimental: The topical anti-inflammatory activity of p-nitrolophine has been analyzed in this study since erythema is a inflammatory process. Specifically, the inhibition of inflammation induced by phorbol 12-myristate-13-acetate (PMA) was evaluated and compared with an anti-inflammatory product of reference (indometacin). 37 mice were divided into the following groups: positive control group (PMA 0.5 mg); negative control group (indometacin 0.5 mg); treated groups (0.5 mg and 1 mg of p-nitrolophine). All the solutions were prepared using acetone (ppa) as vehicle. 20 µL of solution of 25 mg/mL of phorbol 12-myristate-13-acetate (PMA) [Fluka cod 79346] (10 µL in each face) was administered in the right ear of each mouse. Immediately after administering the PMA, nothing more was administered into the positive control group; 20 µL of the solution of 25 mg/mL of indometacin was administered to the negative control group, and 20 µL of the solution of 25 or 50 mg/mL of 4-nitrolophine was administered in the same manner to the treated groups. Animals having no lesions or skin and ear irritation were used.
After 4 hours of post-treatment, the mice were sacrificed through cervical fracture and a portion of 6 mm in diameter was obtained from each ear with a hollow punch which was weight in precision analytical balance. The difference in weight (Δ) between the right ear (treated) and the left ear (non treated) for each animal and for each group were calculated. The percentage of inhibition (% inh) was estimated and calculated according to the following equation: % inh = 100(1-Δt/Δc) [formula] wherein Δt represents the difference in the treated groups and Δc the difference for the […].
In order to analyze the results, an one way ANOVA and Dunnet test for multiple comparison was used, values of P<0.05 were considered significant. A software, Graphpad Instat Version 3.06, was used for such purposes.

T1 sequence (Q92731 whole entry, species assumed): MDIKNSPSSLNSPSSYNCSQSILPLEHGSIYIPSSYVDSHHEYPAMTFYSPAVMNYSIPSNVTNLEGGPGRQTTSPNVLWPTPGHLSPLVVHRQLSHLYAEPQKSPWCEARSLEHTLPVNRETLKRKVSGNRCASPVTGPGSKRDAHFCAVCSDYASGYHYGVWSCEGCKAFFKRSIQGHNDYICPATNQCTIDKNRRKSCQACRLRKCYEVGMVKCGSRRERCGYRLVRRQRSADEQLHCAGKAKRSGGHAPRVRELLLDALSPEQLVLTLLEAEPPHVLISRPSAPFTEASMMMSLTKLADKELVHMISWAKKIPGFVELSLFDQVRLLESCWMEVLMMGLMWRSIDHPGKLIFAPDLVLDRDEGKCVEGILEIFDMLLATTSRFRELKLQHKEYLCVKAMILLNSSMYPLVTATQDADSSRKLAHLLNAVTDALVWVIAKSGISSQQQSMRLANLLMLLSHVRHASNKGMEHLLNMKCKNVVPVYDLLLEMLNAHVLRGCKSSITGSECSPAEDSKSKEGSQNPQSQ

| Structure (SMILES) | UV spectrum A (a.u) [3] | UV spectrum λ (nm) [3] | further results |
| --- | --- | --- | --- |
| C[C@]12CC[C@@H]3c4ccc(O)cc4CC[C@H]3[C@@H]1CC[C@@H]2O [E2, 17β-estradiol, reference compound] |  |  | activity at 0.01 µM (ERβ): 100%; Proliferative effect (PE) Mean [1]: 6, 62*; maximum cell proliferation rate [2]: about 6.2 ± 0.3 |
| c1ccc(-c2nc(-c3ccccc3)c(-c3ccccc3)[nH]2)cc1 [2,4,5-triphenyl-1H-imidazole] | 0.817 a.u and 1.093 a.u | 209.0 nm and 296.0 nm |  |
| O=[N+]([O-])c1ccc(-c2nc(-c3ccc([N+](=O)[O-])cc3)c(-c3ccc([N+](=O)[O-])cc3)[nH]2)cc1 [2,4,5-tris(4-nitrophenyl)-1H-imidazole] | 1.410 a.u and 1.923 a.u | 236.0 nm and 370.0 nm |  |
| Cc1ccc(C=C2C(=O)C3(C)CCC2C3(C)C)cc1 (stereo not drawn) [P5000, 4-methylbenzylidene camphor, reference compound] |  |  | maximum absorption [4]: 295 nm; Erythema induced by UVB radiation in mouse [5]: - |
| CN(C)c1ccc(-c2nc(-c3ccccc3)c(-c3ccccc3)[nH]2)cc1 [2-[4-(N,N-dimethylamino)phenyl]-4,5-diphenyl-1H-imidazole] | 2.032 a.u and 2.692 a.u | 209.5 nm and 322 nm |  |
| Oc1ccc(-c2nc(-c3ccccc3)c(-c3ccccc3)[nH]2)cc1 [2-(4-hydroxyphenyl)-4,5-diphenyl-1H-imidazole] | 1.015 a.u and 1.364 a.u | 225.0 nm and 300.5 nm |  |
| O=[N+]([O-])c1ccc(-c2nc3c4ccccc4c4ccccc4c3[nH]2)cc1 [2-(4-nitrophenyl)-1H-phenanthro[9,10-d]imidazole] |  | 202.0 nm and 256.0 nm and 388.5 nm |  |
| COc1ccc2c(c1)c(CC(=O)O)c(C)n2C(=O)c1ccc(Cl)cc1 [Indometacin, reference compound] |  |  | % inhibition [6]: 87.7** (q = 7.6) %; Average (Δ = RE - LE) ([6]; Dose (mg/ear) 0.5): 0.61; LE Average ([6]; left ear (non treated), group average, 0.5 mg group): 6.7; RE Average ([6]; right ear (treated), group average, 0.5 mg): 7.4; LE ([6]; weight of 6 mm portion of left ear (non treated), individual mice, 0.5 mg group): 6.2 and 6.4 and 6.9 (2×) and 6.7 (3×) and 7.6 and 5.5 and 7.2; RE ([6]; weight of 6 mm portion of right ear (treated), individual mice, 0.5 mg): 6.7 and 7.2 (2×) and 6.8 (2×) and 10 and 6.2 (2×) and 7.4 and 9.1 |
| Fc1ccc(-c2nc(-c3ccccc3)c(-c3ccccc3)[nH]2)cc1 [2-(4-fluorophenyl)-4,5-diphenyl-1H-imidazole] | 1.117 a.u and 1.536 a.u | 224.0 nm and 297.5 nm |  |
| Clc1ccc(-c2nc(-c3ccccc3)c(-c3ccccc3)[nH]2)cc1 [2-(4-chlorophenyl)-4,5-diphenyl-1H-imidazole] | 1.066 a.u and 1.371 a.u | 231.5 nm and 308.0 nm |  |
| COc1ccc(-c2nc(-c3ccccc3)c(-c3ccccc3)[nH]2)cc1 [2-(4-methoxyphenyl)-4,5-diphenyl-1H-imidazole] |  | 252.5 nm and 297.5 nm |  |

The next lines start with results.

| UV spectrum A (a.u) [3] | UV spectrum λ (nm) [3] | Structure (SMILES) | further results |
| --- | --- | --- | --- |
|  | 235.2 nm and 344.4 nm | C(=C\c1nc(-c2ccccc2)c(-c2ccccc2)[nH]1)/c1ccccc1 [(E)-2-styryl-4,5-diphenyl-1H-imidazole] |  |
|  | 202.0 nm and 282.5 nm and 398.5 nm | O=[N+]([O-])c1ccc(/C=C/c2nc(-c3ccccc3)c(-c3ccccc3)[nH]2)cc1 [(E)-2-(4-nitrostyryl)-4,5-diphenyl-1H-imidazole] |  |
